≈ marks a conversion by molar mass, not a printed value. Where “and” joins values, the source holds several entries; their conditions need not be identical. Equal values may be shown once. Entries after “also recorded” stand apart in the source; their conditions may differ. Read-outs that look alike come from different tables or passages of the source.
Experiments:
[1] = Acute oral toxicity test, probability unit method (Bliss method), LD50 by Probit regression; format: in vivo, SD rats; settings: both sexes, Sprague-Dawley, rat, in vivo, po; SD rats, Probit regression
Description: Materials: the test agent 98% sulfoxamyl technical, batch number 20230708-1, was provided by Ningxia Hugerise Chemical Co., Ltd. Experimental animals: SPF-grade SD rats, half male and half female, weighing 180 g to 220 g, were provided by Jinan Pengyue Experimental Animal Breeding Co., Ltd., license number SCXK (Lu) 20190003. Rearing environment: the rats were housed in an SPF-grade animal room with free access to water and food, a temperature of 20° C. to 25° C., a humidity of 40% to 60%, and a 12 h/12 h light cycle. Feed: conventional pellet feed was provided by Jinan Pengyue Experimental Animal Breeding Co., Ltd.
The test was conducted in accordance with “Toxicological test methods of pesticides for registration, GB15670.5-2017”, “Acute toxicity test, GB15193.3-2003” and relevant acute toxicity research data.
Methods: a single oral fixed-dose procedure was conducted to preliminarily explore the toxic dose range of sulfoxamyl. LD50 and confidence limits were calculated by using the probability unit method (Bliss method). SD rats were randomly divided into 5 groups, 10 rats in each group, half of them were male and half were female. The dosages administered to each group were 474.61 mg/kg, 632.81 mg/kg, 843.75 mg/kg, 1,125 mg/kg, and 1,500 mg/kg. The common ratio value among each dose group was 0.75. After a single oral administration, the mortality rate of the experimental animals was recorded within 24 h and 14 days after administration, while the general condition of the animals was observed, and the food intake and body weight changes were recorded.
According to the above test dose, number of animals, number of deaths and other data, SPSS statistical software was used to calculate LD50 by Probit regression, and the results are shown in Table 3.

Meloidogyne incognita = test: Indoor toxicity test against Meloidogyne incognita second-instar larvae (J2); settings: for LC50 / mortality at 3.1 µg/mL / mortality at 6.25 µg/mL / mortality at 12.5 µg/mL / mortality at 25 µg/mL / mortality at 50 µg/mL / mortality at 100 µg/mL: Meloidogyne incognita
Description: Materials: the tested nematodes were collected from three different areas, namely cucumber crops in Dawenkou Town, Tai'an City, Shandong Province, and were all identified as southern root-knot nematodes (Meloidogyne incognita). The diseased roots were washed, cut into small sections of 0.5 cm to 1 cm, rinsed in 1% NaClO solution for about 30 s to 60 s, and rinsed with 200-mesh and 500-mesh sieves to collect nematode eggs for later use. The collected eggs were incubated at 25° C. using the Bayman funnel method and the second-instar larvae were collected 1 time per 24 h to ensure that the second-instar larvae selected each time were fresh and of consistent vitality.
The agent was 98% sulfoxamyl technical, and the comparison agents were 96% oxamyl technical and 87% fosthiazate technical.
The preparation for the agent was in accordance with the provisions for preparation of the liquid medicine in the Agricultural Industry Standard of the People's Republic of China NYT 1833.1-2009 “Guideline for laboratory bioassay of pesticides”, as shown in Table 6.
Methods: according to the experimental plan, the test agent was diluted to different mass concentrations, and 0.5 mL of the agent solution and 0.5 mL of the nematode solution (containing about 100 nematodes) were added into a 24-well cell culture plate. The treatment with each concentration of the agent was repeated 4 times, and auxiliary agent control and blank control were also conducted. […]

For `CNC(=O)O/N=C(/C(=O)N(C)C)S(C)(=O)=O` [Sulfoxamyl, N,N-dimethyl-2-[[[(methylamino)carbonyl]oxy]imino]-2-(methylsulfonyl)acetamide], the LD50 at 14 days [1] was 822 mg/kg, the Corrected mortality (Meloidogyne incognita; 3.1 mg/L, 24 h) was 16.24% and 26.66% and 16.93% and the Mortality (Meloidogyne incognita; 3.1 mg/L, 24 h) was 17.27% and 27.56% and 17.95%. The Corrected mortality (Meloidogyne incognita; 3.1 mg/L, 48 h) was 26.21% and 30.50% and 18.49%, the Death count (Meloidogyne incognita; 3.1 mg/L, 48 h) was 21 and 30 and 40 and 23 and the Mortality (Meloidogyne incognita; 3.1 mg/L, 48 h) was 27.27% and 31.50% and 19.66%. The Corrected mortality (Meloidogyne incognita; 3.1 mg/L, 72 h) was 36.09% and 39.84% and 31.21%, the Death count (Meloidogyne incognita; 3.1 mg/L, 72 h) was 39 and 41 and 52 and 38 and the Mortality (Meloidogyne incognita; 3.1 mg/L, 72 h) was 37.27% and 40.94% and 32.48%. The Corrected mortality (Meloidogyne incognita; 6.25 mg/L, 24 h) was 22.19% and 15.49% and 28.36%, the Death count (Meloidogyne incognita; 6.25 mg/L, 24 h) was 19 and 25 and 20 and 31 and the Mortality (Meloidogyne incognita; 6.25 mg/L, 24 h) was 23.15% and 16.53% and 29.25%. For the same compound, the Corrected mortality (Meloidogyne incognita; 6.25 mg/L, 48 h) was 30.48% and 22.86% and 33.96%, the Death count (Meloidogyne incognita; 6.25 mg/L, 48 h) was 36 and 34 and 29 and 37 and the Mortality (Meloidogyne incognita; 6.25 mg/L, 48 h) was 31.48% and 23.97% and 34.91%. For the same compound, the Corrected mortality (Meloidogyne incognita; 6.25 mg/L, 72 h) was 32.08% and 27.59% and 38.49%, the Death count (Meloidogyne incognita; 6.25 mg/L, 72 h) was 41 and 36 and 35 and 42 and the Mortality (Meloidogyne incognita; 6.25 mg/L, 72 h) was 33.33% and 28.93% and 39.62%. For the same compound, the Corrected mortality (Meloidogyne incognita; 12.5 mg/L, 24 h) was 43.94% and 48.97% and 49.86%, the Death count (Meloidogyne incognita; 12.5 mg/L, 24 h) was 56 and 54 and 62 and 53 and the Mortality (Meloidogyne incognita; 12.5 mg/L, 24 h) was 44.63% and 49.60% and 50.48%. For the same compound, the Corrected mortality (Meloidogyne incognita; 12.5 mg/L, 48 h) was 56.40% and 56.17% and 57.49%, the Death count (Meloidogyne incognita; 12.5 mg/L, 48 h) was 67 and 69 and 71 and 61 and the Mortality (Meloidogyne incognita; 12.5 mg/L, 48 h) was 57.02% and 56.80% and 58.10%. For the same compound, the Corrected mortality (Meloidogyne incognita; 12.5 mg/L, 72 h) was 61.27% and 67.40% and 67.01%, the Death count (Meloidogyne incognita; 12.5 mg/L, 72 h) was 71 and 75 and 85 and the Mortality (Meloidogyne incognita; 12.5 mg/L, 72 h) was 61.98% and 68.00% and 67.62%. The Corrected mortality (Meloidogyne incognita; 25 mg/L, 24 h) was 58.55% and 63.70% and 68.85%, the Death count (Meloidogyne incognita; 25 mg/L, 24 h) was 78 and 75 and 68 and 90 and the Mortality (Meloidogyne incognita; 25 mg/L, 24 h) was 59.06% and 64.15% and 69.23%. For the same compound, the Corrected mortality (Meloidogyne incognita; 25 mg/L, 48 h) was 63.25% and 67.46% and 68.78%, the Death count (Meloidogyne incognita; 25 mg/L, 48 h) was 78 and 81 and 72 and 90 and the Mortality (Meloidogyne incognita; 25 mg/L, 48 h) was 63.78% and 67.92% and 69.23%. For the same compound, the Corrected mortality (Meloidogyne incognita; 25 mg/L, 72 h) was 74.33% and 84.62% and 68.65%, the Death count (Meloidogyne incognita; 25 mg/L, 72 h) was 78 and 95 and 90 and the Mortality (Meloidogyne incognita; 25 mg/L, 72 h) was 74.80% and 84.91% and 69.23%. The Corrected mortality (Meloidogyne incognita; 50 mg/L, 24 h) was 82.02%, the Death count (Meloidogyne incognita; 50 mg/L, 24 h) was 101 and 88 and 92 and the Mortality (Meloidogyne incognita; 50 mg/L, 24 h) was 82.24%. The Death count (Meloidogyne incognita; 50 mg/L, 48 h) was 108 and 95 and 111 and 98, the Corrected mortality (Meloidogyne incognita; 50 mg/L, 72 h) was 92.38% and the Death count (Meloidogyne incognita; 50 mg/L, 72 h) was 115 and 99 and 120 and 101. For the same compound, the Mortality (Meloidogyne incognita; 50 mg/L, 72 h) was 92.52%, the Death count (Meloidogyne incognita; 100 mg/L, 24 h) was 105 and 102 and 120 and 107 and the Death count (Meloidogyne incognita; 100 mg/L, 48 h) was 108 and 102 and 121. For the same compound, the Death count (Meloidogyne incognita; 100 mg/L, 72 h) was 109 and 102 and 121 and 108, the LC90 (Meloidogyne incognita; 24 h) was 52.89 µg/mL (≈ 210 µM) and the LC90 (Meloidogyne incognita; 48 h) was 56.41 µg/mL (≈ 225 µM). The LC90 (Meloidogyne incognita; 72 h) was 36.84 µg/mL (≈ 147 µM), the LC50 (Meloidogyne incognita; 24 h) was 12.5 µg/mL (≈ 49.8 µM) and the mortality at 3.1 µg/mL (Meloidogyne incognita; 24 h, 3.1 mg/L) was 14.4%. For the same compound, the mortality at 6.25 µg/mL (Meloidogyne incognita; 24 h, 6.25 mg/L) was 16.4%, the mortality at 12.5 µg/mL (Meloidogyne incognita; 24 h, 12.5 mg/L) was 51.4% and the mortality at 25 µg/mL (Meloidogyne incognita; 24 h, 25 mg/L) was 66.1%. It also gave a mortality at 50 µg/mL (Meloidogyne incognita; 24 h, 50 mg/L) of 86.3%, a mortality at 100 µg/mL (Meloidogyne incognita; 24 h, 100 mg/L) of 96.3% and a mortality at 3.1 µg/mL (Meloidogyne incognita; 24 h, read-out: Corrected mortality, 3.1 mg/L, 24 h) of 13.4%. The mortality at 6.25 µg/mL (Meloidogyne incognita; 24 h, read-out: Corrected mortality, 6.25 mg/L, 24 h) was 15.3%, the mortality at 12.5 µg/mL (Meloidogyne incognita; 24 h, read-out: Corrected mortality, 12.5 mg/L, 24 h) was 50.8% and the mortality at 25 µg/mL (Meloidogyne incognita; 24 h, read-out: Corrected mortality, 25 mg/L, 24 h) was 65.7%. For the same compound, the mortality at 50 µg/mL (Meloidogyne incognita; 24 h, read-out: Corrected mortality, 50 mg/L, 24 h) was 86.2%, the mortality at 100 µg/mL (Meloidogyne incognita; 24 h, read-out: Corrected mortality, 100 mg/L, 24 h) was 96.3% and the LC50 (Meloidogyne incognita; 48 h) was 10.2 µg/mL (≈ 40.7 µM). The mortality at 3.1 µg/mL (Meloidogyne incognita; 48 h, 3.1 mg/L) was 20.2%, the mortality at 6.25 µg/mL (Meloidogyne incognita; 48 h, 6.25 mg/L) was 31% and the mortality at 12.5 µg/mL (Meloidogyne incognita; 48 h, 12.5 mg/L) was 61.5%. For the same compound, the mortality at 25 µg/mL (Meloidogyne incognita; 48 h, 25 mg/L) was 66.1%, the mortality at 50 µg/mL (Meloidogyne incognita; 48 h, 50 mg/L) was 92.3% and the mortality at 100 µg/mL (Meloidogyne incognita; 48 h, 100 mg/L) was 99.1%. The mortality at 3.1 µg/mL (Meloidogyne incognita; 48 h, read-out: Corrected mortality, 3.1 mg/L, 48 h) was 19%, the mortality at 6.25 µg/mL (Meloidogyne incognita; 48 h, read-out: Corrected mortality, 6.25 mg/L, 48 h) was 30% and the mortality at 12.5 µg/mL (Meloidogyne incognita; 48 h, read-out: Corrected mortality, 12.5 mg/L, 48 h) was 60.9%. The mortality at 25 µg/mL (Meloidogyne incognita; 48 h, read-out: Corrected mortality, 25 mg/L, 48 h) was 65.6%, the mortality at 50 µg/mL (Meloidogyne incognita; 48 h, read-out: Corrected mortality, 50 mg/L, 48 h) was 92.2% and the mortality at 100 µg/mL (Meloidogyne incognita; 48 h, read-out: Corrected mortality, 100 mg/L, 48 h) was 99.1%. The LC50 (Meloidogyne incognita; 72 h) was 7.41 µg/mL (≈ 29.5 µM), the mortality at 3.1 µg/mL (Meloidogyne incognita; 72 h, 3.1 mg/L) was 37.5% and the mortality at 6.25 µg/mL (Meloidogyne incognita; 72 h, 6.25 mg/L) was 35.3%. It also gave a mortality at 12.5 µg/mL (Meloidogyne incognita; 72 h, 12.5 mg/L) of 65.1%, a mortality at 25 µg/mL (Meloidogyne incognita; 72 h, 25 mg/L) of 66.1% and a mortality at 50 µg/mL (Meloidogyne incognita; 72 h, 50 mg/L) of 98.3%. It also gave a mortality at 100 µg/mL (Meloidogyne incognita; 72 h, 100 mg/L) of 100%, a mortality at 3.1 µg/mL (Meloidogyne incognita; 72 h, read-out: Corrected mortality, 3.1 mg/L, 72 h) of 36.3% and a mortality at 6.25 µg/mL (Meloidogyne incognita; 72 h, read-out: Corrected mortality, 6.25 mg/L, 72 h) of 34.1%. The mortality at 12.5 µg/mL (Meloidogyne incognita; 72 h, read-out: Corrected mortality, 12.5 mg/L, 72 h) was 64.5%, the mortality at 25 µg/mL (Meloidogyne incognita; 72 h, read-out: Corrected mortality, 25 mg/L, 72 h) was 65.5% and the mortality at 50 µg/mL (Meloidogyne incognita; 72 h, read-out: Corrected mortality, 50 mg/L, 72 h) was 98.3%. The mortality at 100 µg/mL (Meloidogyne incognita; 72 h, read-out: Corrected mortality, 100 mg/L, 72 h) was 100% and the “killing (indoor nematicidal) activity against Meloidogyne incognita J2, in words” value (Meloidogyne incognita; compared with oxamyl and fosthiazate) was “high killing activity; also recorded: higher than that of oxamyl; also recorded: higher than that of fosthiazate”.

Reference: US20250221413A1, “Use and Preparation Method of Sulfoxamyl, and Oxidation System” (priority 2023, published 2025)
